For 11 molecules, IC50 and inhibition results are on record in article PMC12133982, “Predominant T-cell epitopes of SARS-CoV-2 restricted by multiple prevalent HLA-B and HLA-C allotypes in Northeast Asia” (Frontiers in Immunology, 2025).

The target of one assay is HLA-C0702 (Homo sapiens, UniProt P10321). The assay is described as follows: Competitive peptide binding assay, CIR-C0702.
A further assay concerns the target HLA-C1402 (Homo sapiens, UniProt P10321, A176E/A330V/A35S/A97T/C350S/D114A/D33S/L171W/L180R/L218V/M285V/M309V/M331V/P208H/Q277E/Q291P/R121W/R243W/S123F/S297R/S48A/T329A/T363A/V319A). The assay is described as follows: Competitive peptide binding assay, CIR-C1402. Conditions: HMy2.CIR-C1402 cells, reference Cy5-[…], class from inhibition at 5 and 15 μM, flow cytometry MFI; read-out: Binding affinity with HLA-C1402. As for the experimental part: (§1) Then, competitive peptide binding assays were performed.

The next assay deals with HLA-C0303 (Homo sapiens, UniProt P10321, A176E/A330V/A97T/C25G/C350S/D114A/D33Y/E197K/G115R/L119I/L127V/L171W/L218V/M285V/M309V/M331V/P208H/Q277E/Q291P/R243W/R45H/S123Y/S140Y/S297R/S48A/T118I/T187L/T329A/T363A/V319A). Kind of assay: Competitive peptide binding assay, CIR-C0303. Conditions: HMy2.CIR-C0303 cells, reference Cy5-[…], class from inhibition at 5 and 15 μM, flow cytometry MFI; read-out: Binding affinity with HLA-C0303. As to the method: as §1

The next assay addresses HLA-C0801 (Homo sapiens, UniProt P10321, A176T/A330V/A97T/C350S/D114A/D138N/D33Y/E201K/E299G/L171W/L218V/M285V/M309V/M331V/P208H/Q277E/Q291P/R59Q/S123Y/S140F/S297R/S48A/T329A/T363A/V319A/V328M). The assay is described as follows: Competitive peptide binding assay, CIR-C0801. To be noted: HMy2.CIR-C0801 cells, reference Cy5-[…], class from inhibition at 5 and 15 μM, flow cytometry MFI; read-out: Binding affinity with HLA-C0801. As for the experimental part:
as §1
For orientation: A flow cytometer gives signals particle by particle.

In a further assay the target is HLA-C0602 (Homo sapiens, UniProt P10321, A176E/A330V/C350S/L171W/L180W/L218V/M285V/M309V/M331V/N104K/P208H/Q277E/Q291P/R121W/S101N/S123Y/S297R/T329A/T363A/V319A/V328M). Kind of assay: Competitive peptide binding assay, CIR-C0602.
A further assay addresses HLA-C0401 (Homo sapiens, UniProt P10321, A176E/A330V/A35S/A73E/C25G/C350S/D138N/D33S/E299K/L171W/L180R/L218V/M285V/M309V/M331V/N104K/P208H/Q277E/Q291P/R243W/R38W/S101N/S123F/S140F/S297R/S48A/T329A/T363A/V319A/V327M). Kind of assay: Competitive peptide binding assay, CIR-C0401. To be noted: HMy2.CIR-C0401 cells, reference Cy5-[…], class from inhibition at 5 and 15 μM, flow cytometry MFI; read-out: Binding affinity with HLA-C0401. As for the experimental part: as §1

A further assay concerns the target HLA-C0102 (Homo sapiens, UniProt P10321, A176E/A330V/A35S/A97T/C350S/D114A/D33F/L171W/L180R/L218V/M285V/M309V/M331V/P208H/Q277E/Q291P/R121W/R243W/R30K/S123C/S140Y/S297R/T329A/T363A/V272M/V319A). Kind of assay: Competitive peptide binding assay, CIR-C0102. Conditions: for inhibition at 5 µM / inhibition at 15 µM: read-out: Inhibition % of Cy5-reference peptide binding. As to the method:
as §1

The next assay has as its target HLA-C0302 (Homo sapiens, UniProt P10321, A176E/A330V/A97T/C25G/C350S/D114A/D33Y/E197K/L127V/L171W/L218V/M285V/M309V/M331V/P208H/Q277E/Q291P/R243W/R45H/S123Y/S297R/S48A/T118I/T187L/T329A/T363A/V319A). The assay is described as follows: Competitive peptide binding assay, CIR-C0302. Conditions: HMy2.CIR-C0302 cells, reference Cy5-[…], class from inhibition at 5 and 15 μM, flow cytometry MFI; read-out: Binding affinity with HLA-C0302. As for the experimental part: as §1

In a further assay the target is HLA-C0304 (Homo sapiens, UniProt P10321, A176E/A330V/A97T/C25G/C350S/D114A/D33Y/E197K/L119I/L127V/L171W/L218V/M285V/M309V/M331V/P208H/Q277E/Q291P/R243W/R45H/S123Y/S140Y/S297R/S48A/T118I/T187L/T329A/T363A/V319A). Kind of assay: Competitive peptide binding assay, CIR-C0304. To be noted: HMy2.CIR-C0304 cells, reference Cy5-[…], class from inhibition at 5 and 15 μM, flow cytometry MFI; read-out: Binding affinity with HLA-C0304. As to the method: as §1

Setting [1] is: HMy2.CIR-C0102 cells, reference Cy5-[…], class from inhibition at 5 and 15 μM, flow cytometry MFI, read-out: Binding affinity with HLA-C0102.

Where two headings read alike, the source gives them in different places. Peptide text beside a SMILES is read from it.

Turning to `CC[C@H](C)[C@H](NC(=O)[C@H](Cc1ccccc1)NC(=O)[C@@H](N)Cc1ccc(O)cc1)C(=O)N[C@@H](C)C(=O)N[C@@H](CO)C(=O)N[C@@H](Cc1ccccc1)C(=O)N[C@@H](CCCNC(=N)N)C(=O)N[C@@H](CC(C)C)C(=O)N[C@@H](Cc1ccccc1)C(=O)O` [Epitope M107] (H-YFIASFRLF-OH; N-terminus and C-terminus assumed), the IC50 was > 15 µM on HLA-C0702; < 5 µM at HLA-C1402; 5 to 15 µM at HLA-C0303; > 15 µM on HLA-C0801; > 15 µM on HLA-C0602.
As for `CC[C@H](C)[C@H](N)C(=O)N[C@@H](C)C(=O)N[C@@H](CC(N)=O)C(=O)N[C@@H](CCC(N)=O)C(=O)N[C@@H](Cc1ccccc1)C(=O)N[C@@H](CC(N)=O)C(=O)N[C@@H](CO)C(=O)N[C@@H](C)C(=O)N[C@H](C(=O)O)[C@@H](C)CC` [Epitope M37] (H-IANQFNSAI-OH; N-terminus and C-terminus assumed), the IC50 was > 15 µM at HLA-C0401; < 5 µM at HLA-C0102 (setting [1]); < 5 µM on HLA-C0303; > 15 µM on HLA-C0801; > 15 µM at HLA-C0602. Also, the inhibition (usually the drop in the measured response relative to a control, in per cent) at 5 µM at HLA-C0102 turned out to be 68.9%. Moreover, the inhibition at 15 µM at HLA-C0102 came out at 86.1%.
In the case of `CC[C@H](C)[C@H](N)C(=O)N[C@H](C(=O)N[C@@H](CC(N)=O)C(=O)N[C@@H](CO)C(=O)N[C@H](C(=O)N[C@@H](CC(C)C)C(=O)N[C@@H](CC(C)C)C(=O)N[C@@H](Cc1ccccc1)C(=O)N[C@@H](CC(C)C)C(=O)O)C(C)C)C(C)C` [Epitope M7] (H-IVNSVLLFL-OH; N-terminus and C-terminus assumed), the IC50 on HLA-C0401 is 5 to 15 µM; at HLA-C0102 (setting [1]), < 5 µM; at HLA-C0702, > 15 µM; on HLA-C1402, > 15 µM; on HLA-C0302, > 15 µM; at HLA-C0602, 5 to 15 µM. Further, on HLA-C0304, the IC50 was > 15 µM.
As to `CC(C)C[C@H](NC(=O)[C@H](CC(C)C)NC(=O)[C@H](Cc1ccccc1)NC(=O)[C@@H](NC(=O)[C@@H](NC(=O)[C@H](Cc1ccccc1)NC(=O)[C@H](C)NC(=O)[C@H](CC(C)C)NC(=O)[C@@H](N)Cc1ccccc1)C(C)C)C(C)C)C(=O)O` [Epitope M76] (H-FLAFVVFLL-OH; N-terminus and C-terminus assumed), the IC50 at HLA-C0702 was 5 to 15 µM; at HLA-C1402, > 15 µM; on HLA-C0302 it was 5 to 15 µM; at HLA-C0304, < 5 µM.
`CC[C@H](C)[C@H](NC(=O)[C@@H](NC(=O)[C@H](CC(N)=O)NC(=O)[C@H](CCCNC(=N)N)NC(=O)[C@H](CCCCN)NC(=O)[C@@H](NC(=O)[C@H](Cc1ccc(O)cc1)NC(=O)[C@H](C)NC(=O)[C@@H](N)Cc1ccccc1)[C@@H](C)O)C(C)C)C(=O)O` [Epitope M23] (H-FAYTKRNVI-OH; N-terminus and C-terminus assumed): the IC50 at HLA-C0401 is > 15 µM; on HLA-C0102 (setting [1]), 5 to 15 µM; at HLA-C0303 it was < 5 µM; at HLA-C0801, > 15 µM. Further, on HLA-C0102, the inhibition at 15 µM came to 78.9%.
Regarding `CC(C)[C@H](NC(=O)[C@@H](NC(=O)[C@H](Cc1ccccc1)NC(=O)[C@@H]1CCCN1C(=O)[C@@H](NC(=O)CNC(=O)[C@H](CC(=O)O)NC(=O)[C@@H](NC(=O)[C@@H](N)Cc1ccccc1)C(C)C)C(C)C)C(C)C)C(=O)O` [Epitope M96] (H-FVDGVPFVV-OH; N-terminus and C-terminus assumed), the IC50 on HLA-C0102 was > 15 µM; on HLA-C0702 it was > 15 µM; at HLA-C1402, 5 to 15 µM; at HLA-C0303, > 15 µM; at HLA-C0801, < 5 µM. The inhibition at 5 µM on HLA-C0102 turned out to be 3.72%. In addition, on HLA-C0102, the inhibition at 15 µM turned out to be 20.7%.
Take `CC(C)C[C@H](NC(=O)[C@@H](NC(=O)[C@@H](NC(=O)CNC(=O)[C@H](CCC(N)=O)NC(=O)[C@@H]1CCCN1C(=O)[C@H](CC(C)C)NC(=O)[C@H](CCC(N)=O)NC(=O)[C@@H](N)CC(C)C)[C@@H](C)O)[C@@H](C)O)C(=O)O` [Epitope M13] (H-LQLPQGTTL-OH; N-terminus and C-terminus assumed): the IC50 is 5 to 15 µM at HLA-C0401, 5 to 15 µM on HLA-C0702, > 15 µM at HLA-C1402 and < 5 µM at HLA-C0304.
In the case of `CC(C)C[C@H](NC(=O)[C@H](CC(C)C)NC(=O)[C@H](Cc1ccccc1)NC(=O)[C@@H](NC(=O)[C@H](CCCNC(=N)N)NC(=O)[C@@H]1CCCN1C(=O)[C@H](CCC(N)=O)NC(=O)[C@H](CC(C)C)NC(=O)[C@@H](N)Cc1ccc(O)cc1)[C@@H](C)O)C(=O)O` [Epitope M35] (H-YLQPRTFLL-OH; N-terminus and C-terminus assumed), the IC50 on HLA-C0102 (setting [1]) is > 15 µM; at HLA-C0702, < 5 µM; on HLA-C1402, 5 to 15 µM; on HLA-C0302 it was > 15 µM; on HLA-C0304, > 15 µM.
In the case of `CSCC[C@H](NC(=O)[C@H](C)NC(=O)[C@@H](N)Cc1ccccc1)C(=O)N[C@@H](CCC(N)=O)C(=O)N[C@@H](CCSC)C(=O)N[C@@H](C)C(=O)N[C@@H](Cc1ccc(O)cc1)C(=O)N[C@@H](CCCNC(=N)N)C(=O)N[C@@H](Cc1ccccc1)C(=O)O` [Epitope M63], the IC50 was > 15 µM at HLA-C0401; > 15 µM on HLA-C0102 (setting [1]); > 15 µM on HLA-C0702; < 5 µM at HLA-C0302; 5 to 15 µM on HLA-C0303; > 15 µM at HLA-C0801. In addition, the IC50 on HLA-C0602 was > 15 µM.
On to `CSCC[C@H](NC(=O)[C@H](C)NC(=O)[C@@H]1CCCN1C(=O)[C@H](CC(=O)O)NC(=O)[C@H](C)NC(=O)[C@H](C)NC(=O)[C@H](Cc1ccc(O)cc1)NC(=O)[C@@H](NC(=O)[C@@H](N)CC(C)C)C(C)C)C(=O)O` [Epitope M58] (H-LVYAADPAM-OH; N-terminus and C-terminus assumed), for which the IC50 was > 15 µM at HLA-C0401; > 15 µM at HLA-C0102 (setting [1]); > 15 µM on HLA-C0702; < 5 µM at HLA-C0302; 5 to 15 µM on HLA-C0303; > 15 µM at HLA-C0801.
On to `CSCC[C@H](NC(=O)[C@H](CO)NC(=O)[C@H](CCC(N)=O)NC(=O)[C@H](CCC(N)=O)NC(=O)[C@H](CC(C)C)NC(=O)[C@H](CCC(N)=O)NC(=O)[C@H](CCCCN)NC(=O)[C@H](CO)NC(=O)[C@@H](N)Cc1ccccc1)C(=O)O` [Epitope M14] (H-FSKQLQQSM-OH; N-terminus and C-terminus assumed), for which the IC50 is > 15 µM on HLA-C0102 (setting [1]); 5 to 15 µM at HLA-C0702; < 5 µM on HLA-C0302; < 5 µM at HLA-C0303; > 15 µM at HLA-C0801; 5 to 15 µM on HLA-C0304.
